Source: BindingDB's records for patent US10759792 (The Johns Hopkins University, 2020)

Biological target: Calcium/calmodulin-dependent protein kinase type II subunit delta (Homo sapiens, UniProt Q13557)
Assay: Inhibition Assay
Description: Compounds were added in 5 uL volume to wells in UV transparent 96-well plates ( area well size). The final compound concentrations tested ranged from 0.5 nM to 10 uM). Assays were performed in duplicate. CaMKIIδ is added to at a final concentration of 16 nM to a mixture containing 100 mM Tris (pH 7.5), 150 mM KCl, 0.27 mM EGTA, 1.3 mM PEP, 0.2 mg/ml AC3, 6.9% (v/v) PK/LDH mixture (Sigma P0294), 0.38 mM NADH and kept on ice. 72 uL of the enzyme mixture was added to the wells containing compounds and the plate was shaken briefly and kept on ice. The assay was initiated by adding 23 uL of a mixture containing 100 mM Tris (pH 7.5), 150 mM KCl, 1.7 mM CaCl2, 48 mM MgCl2, 0.35 mM ATP and 6.7 ug/mL calmodulin. The rate of ADP released was measured as the rate of absorbance decrease at […] at 25° C.

Chain of Calcium/calmodulin-dependent protein kinase type II subunit delta (Q13557 whole entry): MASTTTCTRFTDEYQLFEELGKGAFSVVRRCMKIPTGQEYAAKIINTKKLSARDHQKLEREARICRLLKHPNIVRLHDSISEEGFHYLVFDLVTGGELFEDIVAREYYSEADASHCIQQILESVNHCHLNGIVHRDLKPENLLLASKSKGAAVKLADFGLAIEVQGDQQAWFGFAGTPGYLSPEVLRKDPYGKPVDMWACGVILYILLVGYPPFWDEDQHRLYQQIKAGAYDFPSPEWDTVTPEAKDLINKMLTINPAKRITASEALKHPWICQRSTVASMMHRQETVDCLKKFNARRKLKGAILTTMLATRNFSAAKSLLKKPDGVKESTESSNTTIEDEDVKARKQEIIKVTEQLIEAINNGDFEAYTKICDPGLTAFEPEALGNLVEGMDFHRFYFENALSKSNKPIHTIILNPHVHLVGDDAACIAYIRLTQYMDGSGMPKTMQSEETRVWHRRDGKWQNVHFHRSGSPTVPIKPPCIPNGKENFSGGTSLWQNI

| IC50 | Structure (SMILES) |
| --- | --- |
| < 50 nM | Cc1ccc2c(c1)[nH]c1nccc(-c3cccc(NCCN)c3)c12 [US10759792, Compound I-11] |
| < 50 nM | NCCCNc1cccc(-c2ccnc3[nH]c4ccccc4c23)c1 [US10759792, Compound I-8] |
